According to ChEMBL document CHEMBL2321809 (J Med Chem, 2013):
≈ marks a conversion by molar mass, not a printed value. Calls of active or inactive are those of the source. No cut-off for these calls is given here.

Legend:
[1] = Inhibition of Beta-lactamase SHV-1 K234R protein mutant in Escherichia coli DH10B by Henri-Michaelis-Menten steady state equation analysis
[2] = Inhibition of wild type Beta-lactamase SHV-1 in Escherichia coli DH10B by Henri-Michaelis-Menten steady state equation analysis
Escherichia coli [3] = assay: Selectivity ratio of Ki for Beta-lactamase SHV-1 in Escherichia coli DH10B to Ki for Beta-lactamase SHV-1 K234R protein mutant in Escherichia coli DH10B
Escherichia coli [4] = assay: Binding affinity to Beta-lactamase SHV-1 K234R protein mutant in Escherichia coli DH10B assessed as melting temperature at 50 uM by circular dichroism analysis
Escherichia coli [5] = assay: Binding affinity to wild type Beta-lactamase SHV-1 in Escherichia coli DH10B assessed as melting temperature at 50 uM by circular dichroism analysis
Escherichia coli [6] = assay: Binding affinity to Beta-lactamase SHV-1 K234R protein mutant in Escherichia coli DH10B assessed as change in secondary structure at 50 uM by circular dichroism analysis
Escherichia coli [7] = assay: Binding affinity to wild type Beta-lactamase SHV-1 in Escherichia coli DH10B assessed as change in secondary structure at 50 uM by circular dichroism analysis
Escherichia coli [8] = assay: Ratio of Kcat to Km for Beta-lactamase SHV-1 K234R protein mutant in Escherichia coli DH10B
Escherichia coli [9] = assay: Ratio of Kcat to Km for wild type Beta-lactamase SHV-1 in Escherichia coli DH10B
Escherichia coli [10] = assay: Activity of Beta-lactamase SHV-1 K234R protein mutant in Escherichia coli DH10B by Henri-Michaelis-Menten steady state equation analysis
Escherichia coli [11] = assay: Activity of wild type Beta-lactamase SHV-1 in Escherichia coli DH10B by Henri-Michaelis-Menten steady state equation analysis
Escherichia coli [12] = assay: Antimicrobial activity against Escherichia coli DH10B expressing Beta-lactamase SHV-1 K234X protein mutant by CLSI agar dilution method; assay type: functional
Escherichia coli [13] = assay: Antimicrobial activity against Escherichia coli DH10B expressing Beta-lactamase SHV-1 K234A protein mutant by CLSI agar dilution method; assay type: functional
Escherichia coli [14] = assay: Antimicrobial activity against Escherichia coli DH10B expressing Beta-lactamase SHV-1 K234R protein mutant by CLSI agar dilution method; assay type: functional
Escherichia coli [15] = assay: Antimicrobial activity against Escherichia coli DH10B expressing wild type Beta-lactamase SHV-1 by CLSI agar dilution method; assay type: functional
Escherichia coli [16] = assay: Antimicrobial activity against Escherichia coli DH10B by CLSI agar dilution method; assay type: functional
Escherichia coli [17] = assay: Antimicrobial activity against Escherichia coli DH10B expressing Beta-lactamase SHV K234R mutant by CLSI agar dilution method in presence of ampicillin; assay type: functional
Escherichia coli [18] = assay: Antimicrobial activity against Escherichia coli DH10B expressing wild type Beta-lactamase SHV1 gene by CLSI agar dilution method in presence of ampicillin; assay type: functional
Escherichia coli [19] = assay: Antimicrobial activity against Escherichia coli DH10B by CLSI agar dilution method in presence of ampicillin; assay type: functional
Escherichia coli [20] = assay: Antimicrobial activity against Escherichia coli DH10B expressing Beta-lactamase SHV K234X mutant by CLSI agar dilution method in presence of ampicillin; assay type: functional
Escherichia coli [21] = assay: Antimicrobial activity against Escherichia coli DH10B expressing Beta-lactamase SHV K234A mutant by CLSI agar dilution method in presence of ampicillin; assay type: functional

## O=C(Cc1cccs1)N[C@@H](Cc1cccc(C(=O)O)c1)B(O)O
[1]
  Ki: 12 nM
[2]
  Ki: 460 nM

## CCOc1ccc2ccccc2c1C(=O)N[C@@H](Cc1cccc(C(=O)O)c1)B(O)O
[1]
  Ki: 48 nM
[2]
  Ki: 37 nM

## N[C@@H](C(=O)N[C@@H](Cc1cccc(C(=O)O)c1)B(O)O)c1ccccc1
Escherichia coli [3]
  Ratio Ki: 20
Escherichia coli [4]
  Tm: 54.8 °C
Escherichia coli [5]
  Tm: 61.4 °C
[1]
  Ki: 2.4 nM
[2]
  Ki: 56 nM

## CCN1CCN(C(=O)N[C@@H](C(=O)N[C@@H](Cc2cccc(C(=O)O)c2)B(O)O)c2ccc(O)cc2)C(=O)C1=O
[1]
  Ki: 13.5 nM
[2]
  Ki: 9.3 nM

## O=C(Cc1cccs1)NCB(O)O
Escherichia coli [6]
  inhibition: inactive
Escherichia coli [7]
  inhibition: Active
Escherichia coli [4]
  Tm: 48.9 °C
Escherichia coli [5]
  Tm: 55.1 °C
[1]
  Ki: 61000 nM
[2]
  Ki: 20000 nM

## O=C(Cc1cccs1)N[C@@H]1C(=O)N2C(C(=O)O)=C(/C=C/c3ccc([N+](=O)[O-])cc3[N+](=O)[O-])CS[C@H]12
Escherichia coli [8]
  kcat/Km: 4.3e+06 M⁻¹ s⁻¹
Escherichia coli [9]
  kcat/Km: 1.41e+07 M⁻¹ s⁻¹
Escherichia coli [10]
  Km: 10.4 µM
  kcat: 45.2 s⁻¹
Escherichia coli [11]
  Km: 24.7 µM
  kcat: 348 s⁻¹

## CC1(C)S[C@@H]2[C@H](NC(=O)[C@H](N)c3ccccc3)C(=O)N2[C@H]1C(=O)O [AMPICILLIN]
Escherichia coli [12]
  MIC: 4 µg/mL (≈ 11.4 µM)
Escherichia coli [13]
  MIC: 32 µg/mL (≈ 91.6 µM)
Escherichia coli [14]
  MIC: 16400 µg/mL (≈ 46900 µM)
Escherichia coli [15]
  MIC: > 16400 µg/mL
Escherichia coli [16]
  MIC: 1 µg/mL (≈ 2.86 µM)

## CC(=O)OCC1=C(C(=O)O)N2C(=O)[C@@H](NC(=O)Cc3cccs3)[C@H]2SC1 [CEPHALOTHIN]
Escherichia coli [9]
  kcat/Km: 870000 M⁻¹ s⁻¹
Escherichia coli [10]
  Km: 29 µM
Escherichia coli [11]
  Km: 48.9 µM
  kcat: 42.6 s⁻¹
Escherichia coli [12]
  MIC: 8 µg/mL (≈ 20.2 µM)
Escherichia coli [13]
  MIC: 8 µg/mL (≈ 20.2 µM)
Escherichia coli [14]
  MIC: 16 µg/mL (≈ 40.4 µM)
Escherichia coli [15]
  MIC: 256 µg/mL (≈ 646 µM)
Escherichia coli [16]
  MIC: 2 µg/mL (≈ 5.04 µM)

## O=C(O)[C@H]1/C(=C/CO)O[C@@H]2CC(=O)N21 [CLAVULANIC ACID]
Escherichia coli [6]
  inhibition: Active
Escherichia coli [7]
  inhibition: Active
Escherichia coli [4]
  Tm: 46.1 °C
Escherichia coli [5]
  Tm: 55 °C
Escherichia coli [17]
  MIC: 16 µg/mL
Escherichia coli [18]
  MIC: 4 µg/mL
Escherichia coli [19]
  MIC: < 0.06 µg/mL

## CCN1CCN(C(=O)N[C@@H](C(=O)N[C@@H]2C(=O)N3[C@@H]2SC(C)(C)[C@@H]3C(=O)O)c2ccccc2)C(=O)C1=O [PIPERACILLIN]
Escherichia coli [9]
  kcat/Km: 1.58e+07 M⁻¹ s⁻¹
Escherichia coli [10]
  Km: 305 µM
Escherichia coli [11]
  Km: 74.6 µM
  kcat: 1180 s⁻¹
Escherichia coli [12]
  MIC: 4 µg/mL (≈ 7.73 µM)
Escherichia coli [13]
  MIC: 8 µg/mL (≈ 15.5 µM)
Escherichia coli [14]
  MIC: 2050 µg/mL (≈ 3960 µM)
Escherichia coli [15]
  MIC: > 4100 µg/mL
Escherichia coli [16]
  MIC: 1 µg/mL (≈ 1.93 µM)

## CC1(C)[C@H](C(=O)O)N2C(=O)C[C@H]2S1(=O)=O [SULBACTAM]
Escherichia coli [6]
  inhibition: inactive
Escherichia coli [7]
  inhibition: Active
Escherichia coli [5]
  Tm: 54.4 °C
Escherichia coli [20]
  MIC: < 0.06 µg/mL
Escherichia coli [21]
  MIC: < 0.06 µg/mL
Escherichia coli [17]
  MIC: 64 µg/mL
Escherichia coli [18]
  MIC: 512 µg/mL
Escherichia coli [19]
  MIC: < 0.06 µg/mL

## C[C@]1(Cn2ccnn2)[C@H](C(=O)O)N2C(=O)C[C@H]2S1(=O)=O [TAZOBACTAM]
Escherichia coli [6]
  inhibition: inactive
Escherichia coli [7]
  inhibition: Active
Escherichia coli [4]
  Tm: 49 °C
Escherichia coli [5]
  Tm: 54.4 °C
Escherichia coli [20]
  MIC: < 0.06 µg/mL
Escherichia coli [21]
  MIC: < 0.06 µg/mL
Escherichia coli [17]
  MIC: 16 µg/mL
Escherichia coli [18]
  MIC: 128 µg/mL
Escherichia coli [19]
  MIC: < 0.06 µg/mL
